Results from patent publication US20060223891A1, “Use of alverine, alone or in combination with a tricyclic antidepressant or an antidepressant which is a specific inhibitor of serotonin reuptake for treatment of depression” (CEREP, priority 2003, published 2006).
Several values for one entry are separate records, joined by “and”; a condition that tells them apart may be missing. Equal entries are not always repeated. Entries after “also recorded” stand apart in the source; their conditions may differ. Structures can show the parent of a compound that is named as a salt.

Columns and labels:
Format in all cases: in vivo
Swiss mice CD1 [1] = test: forced swimming test, Alverine administered orally (Example 2); set-up: key to Dunnett test: * indicates a significant difference for p < 0.05 (Dunnett test); ns indicates an insignificant result; conditions: for immobility time, individual mice / immobility time, Average: 60 minutes prior to the test; for immobility time, Average: N = 10; for % of variation of immobility time: vs average of excipient group; for Dunnett test: vs excipient group
Description: Antidepressive Activity Test on Alverine administered orally on a batch of mice.
To establish the advantages according to the present invention a study, was carried out on a batch of 50 mice. They were divided into 5 groups of 10 mice each. These are Swiss mice CD1 (CD-1® (ICR) IGS (Charles River France) weighing between 25 and 35 g.
The substance to be tested is Alverine citrate (Sigma, in the form of dry powder, with a salt/base ratio of 1.68) comparatively to imipramine chlorhydrate (Sigma, in the form of dry powder, with a salt/base ratio of 1.13).
The fifth group is treated with imipramine (tricyclic antidepressant) at a dose of 30 mg/kg The doses are expressed in terms of free active substances. The substances are prepared extemporaneously in the excipient. […]
One hour following administration the five groups of mice are subjected to the forced swimming test, in a vertical Plexiglas cylinder (height 24 cm, diameter 9 cm) containing water (height 6 cm, temperature 18-22° C.). The total duration of immobility is measured over the last four minutes of the test, six minutes in total. A mouse is deemed immobile when it ceases struggling and floats in the water without movements superfluous to those allowing it to keep its head above water. A drop in immobility time is the reflection of an antidepressant effect.
The results are expressed in total duration of immobility in seconds and as a percentage of variation of the total duration of immobility calculated from the average value of the sample group.
The statistical significance between the treated groups and the sample group is determined by a Dunnett test using the residual variation according to analysis of the. variance (P<0.05). The data are analysed using <<SigmaStat>> software.

Swiss mice CD1 [2] = test: forced swimming test, Alverine associated with imipramine, intraperitoneally (Example 3, test no. 1); set-up: key to Dunnett test: * indicates a significant difference for p < 0.05 (Dunnett test); ns indicates an insignificant result; conditions: for immobility time, individual mice / immobility time, Average / % of variation of immobility time / Dunnett test: intraperitoneally; for immobility time, individual mice / immobility time, Average: 30 minutes prior to the test; for immobility time, Average: n = 10; for % of variation of immobility time: vs average of excipient group; for Dunnett test: vs excipient group; for duration of immobilisation as compared to the sample group (in words): tested alone at 3 mg/kg
Description: (§1) The treatments are co-administered 30 minutes prior to the test in a coded and random order intraperitoneally with a volume of 10 ml/kg (5 ml/kg for each administration). Thirty minutes following administration the six groups of mice are subjected to the forced swimming test, in a vertical Plexiglas cylinder (height 24 cm, diameter 9 cm) containing water (height 6 cm, temperature 18-22° C.). The total duration of immobility is measured over the last four minutes of the test, six minutes in total. A mouse is deemed immobile when it ceases struggling and floats in the water without movements superfluous to those allowing it to keep its. head above water. A drop in immobility time is the reflection of an antidepressant effect. The results are expressed in total duration of immobility in seconds and as a percentage of variation of the total duration of immobility calculated from the average value of the sample group. The statistical significance between two treated groups is determined by using a Student test (P<0.05). The data are analysed using <<SigmaStat>> software.

Swiss mice CD1 [3] = test: forced swimming test, Alverine associated with fluoxetine, intraperitoneally (Example 3, test no. 2); conditions: for immobility time, individual mice / immobility time, Average: 30 minutes prior to the test; for immobility time, Average: n = 10; for % of variation of immobility time: vs average of excipient group; for duration of immobilisation as compared to the sample group (in words): tested alone at 3 mg/kg
Description: as §1, with “Thirty minutes following administration the six groups of mice are subjected to the forced swimming test, in a vertical Plexiglas cylinder (height 24 cm, diameter 9 cm) containing water (height 6 cm, temperature 18-22° C.).” left out

Swiss mice CD1 [4] = test: forced swimming test, Alverine administered intraperitoneally (Example 1); set-up: key to Dunnett test: * indicates a significant difference for p < 0.05 (Dunnett test); ns indicates an insignificant result; conditions: for immobility time, individual mice / immobility time, Average: 30 minutes prior to the test; for immobility time, Average: N = 10; for % of variation of immobility time: vs average of excipient group; for Dunnett test: vs excipient group
Description: Antidepressive Activity Test on Alverine administered intraperitoneally on a batch of mice. To establish the advantages according to the present invention a study was carried out on a batch of 50 mice. They were divided into 5 groups of 10 mice each. These are Swiss mice CD1 (CD-1®(ICR) IGS (Charles River France) weighing between 25 and 35 g. The substance to be tested is Alverine citrate (Sigma, in the form of dry powder, with a salt/base ratio of 1.68) comparatively to imipramine chlorhydrate (Sigma, in the form of dry powder, with a salt/base ratio of 1.13). The doses are expressed in terms of free active substances. The substances are prepared extemporaneously in the excipient. The treatments are administered 30 minutes prior to the test in a coded and random order intraperitoneally with a volume of 10 ml/kg. Thirty minutes following administration the five groups of mice are subjected to the forced swimming test, in a vertical Plexiglas cylinder (height 24 cm, diameter 9 cm) containing water (height 6 cm, temperature 18-22° C.). The total duration of immobility is measured over the last four minutes of the test, six minutes in total. A mouse is deemed immobile when it ceases struggling and floats in the water without movements superfluous to those allowing it to keep its head above water. A drop in immobility time is the reflection of an antidepressant effect. The results are expressed in total duration of immobility in seconds and as a percentage of variation of the total duration of immobility calculated from the average value of the sample group. The statistical significance between the treated groups and the sample group is determined by a Dunnett test using the residual variation according to analysis of the variance (P<0.05). The data are analysed using <<SigmaStat>> software. The results obtained are presented in the form of the following table, and in the form of a histogram, in FIG. 1.

[5] = 3 mg/kg alone, intraperitoneally
[6] = 10 mg/kg alone, intraperitoneally

CCN(CCCc1ccccc1)CCCc1ccccc1 [Alverine citrate, N-ethyl-3,3′-diphenyldipropylamine]
immobility time, individual mice (Swiss mice CD1 [1]; 10 mg/kg orally): 95 s and 104 s and 111 s and 126 s and 108 s and 78 s and 115 s and 106 s and 113 s and 86 s | immobility time, Average (Swiss mice CD1 [1]; 10 mg/kg orally): 104.2 s | % of variation of immobility time (Swiss mice CD1 [1]; 10 mg/kg orally): −30% | Dunnett test (Swiss mice CD1 [1]; 10 mg/kg orally): ns | immobility time, individual mice (Swiss mice CD1 [1]; 30 mg/kg orally): 80 sec and 64 sec and 70 sec and 105 sec (3×) and 41 sec and 63 sec and 113 sec and 104 sec | immobility time, Average (Swiss mice CD1 [1]; 30 mg/kg orally): 85.0 s | % of variation of immobility time (Swiss mice CD1 [1]; 30 mg/kg orally): −43% | Dunnett test (Swiss mice CD1 [1]; 30 mg/kg orally): * (* indicates a significant difference for p < 0.05 (Dunnett test)) | immobility time, individual mice (Swiss mice CD1 [1]; 100 mg/kg orally): 129 s and 67 s and 6 s and 105 s and 75 s and 81 s and 5 s and 37 s and 32 s and 52 s | immobility time, Average (Swiss mice CD1 [1]; 100 mg/kg orally): 58.9 s | % of variation of immobility time (Swiss mice CD1 [1]; 100 mg/kg orally): −60% | Dunnett test (Swiss mice CD1 [1]; 100 mg/kg orally): * (* indicates a significant difference for p < 0.05 (Dunnett test)) | secondary effect observed (Swiss mice CD1 [1]; mice treated orally, 10 to 100 mg/kg): no secondary effect was observed | antidepressant effect (in words) (Swiss mice CD1 [1]; orally, 10 to 100 mg/kg, mice): significant antidepressant effect; also recorded: antidepressant effect proportional to the dose | immobility time, individual mice (Swiss mice CD1 [2]; 3 mg/kg alone): 108 s and 134 s and 113 s and 65 s and 85 s and 73 s and 79 s and 125 s and 95 s and 140 s | immobility time, Average (Swiss mice CD1 [2]; 3 mg/kg alone): 101.7 s | % of variation of immobility time (Swiss mice CD1 [2]; 3 mg/kg alone): −30% | Dunnett test (Swiss mice CD1 [2]; 3 mg/kg alone): ns | immobility time, individual mice (Swiss mice CD1 [2]; 10 mg/kg alone): 28 s and 10 s and 1 s and 74 s and 22 s and 70 s and 69 s and 67 s and 42 s and 57 s | immobility time, Average (Swiss mice CD1 [2]; 10 mg/kg alone): 44.0 s | % of variation of immobility time (Swiss mice CD1 [2]; 10 mg/kg alone): −70% | Dunnett test (Swiss mice CD1 [2]; 10 mg/kg alone): * (* indicates a significant difference for p < 0.05 (Dunnett test)) | duration of immobilisation as compared to the sample group (in words) (Swiss mice CD1 [2]): decrease, statistically insignificant | immobility time, individual mice (Swiss mice CD1 [3]; [5]): 119 sec and 138 sec and 117 sec (2×) and 110 sec and 73 sec and 47 sec and 124 sec and 72 sec and 32 sec | immobility time, Average (Swiss mice CD1 [3]; [5]): 94.9 s | % of variation of immobility time (Swiss mice CD1 [3]; [5]): −37% | immobility time, individual mice (Swiss mice CD1 [3]; [6]): 63 sec and 75 sec (2×) and 77 sec and 46 sec and 6 sec and 113 sec and 89 sec and 104 sec and 125 sec | immobility time, Average (Swiss mice CD1 [3]; [6]): 77.3 s | % of variation of immobility time (Swiss mice CD1 [3]; [6]): −49% | Dunnett test (Swiss mice CD1 [3]; 10 mg/kg alone, intraperitoneally, vs excipient group): * (* indicates a significant difference for p < 0.05 (Dunnett test)) | duration of immobilisation as compared to the sample group (in words) (Swiss mice CD1 [3]): decrease, statistically insignificant | immobility time, individual mice (Swiss mice CD1 [4]; 3 mg/kg intraperitoneally): 128 s and 82 s and 151 s and 132 s and 127 s and 88 s and 85 s and 99 s and 93 s and 118 s | immobility time, Average (Swiss mice CD1 [4]; 3 mg/kg intraperitoneally): 110.3 s | % of variation of immobility time (Swiss mice CD1 [4]; 3 mg/kg intraperitoneally): −15% | Dunnett test (Swiss mice CD1 [4]; 3 mg/kg intraperitoneally): ns | immobility time, individual mice (Swiss mice CD1 [4]; 10 mg/kg intraperitoneally): 29 s and 86 s and 28 s and 30 s and 90 s and 99 s and 65 s and 129 s and 57 s and 3 s | immobility time, Average (Swiss mice CD1 [4]; 10 mg/kg intraperitoneally): 61.6 s | % of variation of immobility time (Swiss mice CD1 [4]; 10 mg/kg intraperitoneally): −53% | Dunnett test (Swiss mice CD1 [4]; 10 mg/kg intraperitoneally): * (* indicates a significant difference for p < 0.05 (Dunnett test)) | immobility time, individual mice (Swiss mice CD1 [4]; 30 mg/kg intraperitoneally): 97 sec and 3 sec and 66 sec and 36 sec and 0 sec and 15 sec and 7 sec (2×) and 16 sec and 12 sec | immobility time, Average (Swiss mice CD1 [4]; 30 mg/kg intraperitoneally): 25.9 s | % of variation of immobility time (Swiss mice CD1 [4]; 30 mg/kg intraperitoneally): −80% | Dunnett test (Swiss mice CD1 [4]; 30 mg/kg intraperitoneally): * (* indicates a significant difference for p < 0.05 (Dunnett test)) | antidepressant effect (in words) (Swiss mice CD1 [4]; injected intraperitoneally, 3 to 30 mg/kg, mice): antidepressant effect proportional to the dose; also recorded: significant antidepressant effect

CNCCC(Oc1ccc(C(F)(F)F)cc1)c1ccccc1 (stereo not shown) [Fluoxetine, fluoxetine]
duration of immobilisation as compared to the sample group (in words) (Swiss mice CD1 [3]): decrease, statistically insignificant

CN(C)CCCN1c2ccccc2CCc2ccccc21 [Imipramine, imipramine]
duration of immobilisation as compared to the sample group (in words) (Swiss mice CD1 [2]): decrease, statistically insignificant
